Earlier results on 1 compound are cited in patent US20110200683A1, “Hydrogen peroxide solution producing first aid substance, packaging, and treatment” (Piper Medical, Inc, priority 2010, published 2011).

The conditions of series [1]: in water.
The conditions of series [2]: temperatures above 50° C.

For `NC(N)=O.OO` [percarbamide], the “solubility sufficient to create a hydrogen peroxide concentration” value in series [1] is on record as at least 3%. The stability result in series [2] is recorded as “relatively stable”.
